Measured values from article PMC5065612, “A small molecule inhibitor of mutant IDH2 rescues cardiomyopathy in a D-2-hydroxyglutaric aciduria type II mouse model” (Journal of Inherited Metabolic Disease, 2016).

Key:
[1] = biological target: T1, IDH2R140Q (isocitrate dehydrogenase 2) (Homo sapiens, UniProt P48735, R140Q); experiment: NADPH depletion end-point assay (diaphorase/resazurin), […] h preincubation, recombinant enzyme; format: biochemical
T1 construct: gene IDH2; IDH2R140Q homodimer, recombinant purified enzyme
T1 sequence (P48735 40-452 R140Q): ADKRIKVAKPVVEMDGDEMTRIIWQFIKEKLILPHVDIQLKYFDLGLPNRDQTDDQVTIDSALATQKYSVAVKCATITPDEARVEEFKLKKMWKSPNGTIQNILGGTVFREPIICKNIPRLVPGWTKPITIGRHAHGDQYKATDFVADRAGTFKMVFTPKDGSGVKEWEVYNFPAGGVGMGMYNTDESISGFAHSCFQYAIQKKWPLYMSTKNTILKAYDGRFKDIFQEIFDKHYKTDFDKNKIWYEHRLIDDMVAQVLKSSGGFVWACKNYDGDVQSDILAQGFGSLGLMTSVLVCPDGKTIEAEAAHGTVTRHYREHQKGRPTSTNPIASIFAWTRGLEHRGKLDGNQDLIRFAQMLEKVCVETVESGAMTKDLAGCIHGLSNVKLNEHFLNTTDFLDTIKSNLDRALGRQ

[2] = biological target: T2, Idh2R140Q (mouse isocitrate dehydrogenase 2) (Mus musculus, UniProt P54071, R140Q); experiment: 2HG production in culture medium of knock-in ES cells, LC-MS; format: cell-based
T2 construct: gene Idh2; Idh2R140Q knock-in mouse embryonic stem cells
T2 sequence (P54071 40-452 R140Q): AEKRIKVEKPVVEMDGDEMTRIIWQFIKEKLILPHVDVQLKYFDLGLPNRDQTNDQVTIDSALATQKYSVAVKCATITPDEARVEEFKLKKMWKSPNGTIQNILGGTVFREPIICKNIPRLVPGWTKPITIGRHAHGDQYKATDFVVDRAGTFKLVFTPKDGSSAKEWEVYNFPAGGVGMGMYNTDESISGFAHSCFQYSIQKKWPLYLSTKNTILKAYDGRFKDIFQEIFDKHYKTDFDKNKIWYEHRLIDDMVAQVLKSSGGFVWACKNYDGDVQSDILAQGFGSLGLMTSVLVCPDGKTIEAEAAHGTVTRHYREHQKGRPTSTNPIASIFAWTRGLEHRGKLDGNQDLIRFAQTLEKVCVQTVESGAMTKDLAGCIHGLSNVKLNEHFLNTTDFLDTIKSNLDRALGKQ

IC50 [1]: 4 ± 0.2 nM
IC50 [2]: 5.4 ± 2.8 nM
SMILES: CC(C)Nc1nc(Nc2ccnc(C(F)(F)F)c2)nc(-c2cccc(C(F)(F)F)n2)n1 [AGI-026]
